Test results taken from US7816523B2, “Potentiators of glutamate receptors” (Eli Lilly and Company, priority 2004, dated 2010).
pEC50, pIC50: −log10 of the molar value.

What was measured:
human mGlu2 receptors = molecular target: T1, human mGlu2 receptors (Homo sapiens, UniProt Q14416); assay: Potentiation of glutamate-induced increase in intracellular calcium with a mGlu2 expressing cell line (FLIPR); assay type: cell-based; settings: with submaximal glutamate-site agonist (e.g. 1 μM glutamate)
T1 construct: expressed in transfected cells; host or cells: RGT cells (co-transfected with the glutamate/aspartate transporter GLAST and stably transfected with Galpha15)
T1 sequence (Q14416 19-872): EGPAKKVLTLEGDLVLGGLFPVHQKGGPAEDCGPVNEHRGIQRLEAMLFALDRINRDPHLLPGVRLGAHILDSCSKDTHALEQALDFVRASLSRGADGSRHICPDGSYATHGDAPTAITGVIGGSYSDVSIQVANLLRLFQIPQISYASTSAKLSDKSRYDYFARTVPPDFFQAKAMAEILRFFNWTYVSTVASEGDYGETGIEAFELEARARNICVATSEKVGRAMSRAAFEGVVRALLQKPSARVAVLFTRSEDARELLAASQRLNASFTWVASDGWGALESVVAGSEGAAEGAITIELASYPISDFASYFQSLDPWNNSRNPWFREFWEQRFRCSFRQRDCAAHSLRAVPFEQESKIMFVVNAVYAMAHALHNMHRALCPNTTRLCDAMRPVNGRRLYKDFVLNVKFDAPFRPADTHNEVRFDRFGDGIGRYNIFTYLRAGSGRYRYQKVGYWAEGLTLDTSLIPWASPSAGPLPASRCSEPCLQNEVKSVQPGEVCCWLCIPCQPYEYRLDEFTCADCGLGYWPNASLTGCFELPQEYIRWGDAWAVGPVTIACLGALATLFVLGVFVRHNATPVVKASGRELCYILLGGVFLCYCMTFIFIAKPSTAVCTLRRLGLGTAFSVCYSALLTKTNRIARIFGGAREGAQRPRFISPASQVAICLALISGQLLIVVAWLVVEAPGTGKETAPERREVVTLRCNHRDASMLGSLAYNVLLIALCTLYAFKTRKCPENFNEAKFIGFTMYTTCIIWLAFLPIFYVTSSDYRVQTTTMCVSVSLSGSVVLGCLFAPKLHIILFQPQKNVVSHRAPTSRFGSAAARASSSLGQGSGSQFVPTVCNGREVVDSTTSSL
Experimental: Potentiation of Glutamate-Induced Increase in Intracellular Calcium with a mGlu2 Expressing Cell Line
Cell lines expressing human mGlu2 receptors are derived as previously described (Desai, Burnett, Mayne, Schoepp, Mol. Pharmacol. 48, 648-657, 1995) and cultured in DMEM with 5% dialyzed fetal bovine serum, 1 mM glutamine, 1 mM sodium pyruvate, 50 μg/mL Geneticin G418, and 0.2 mg/mL hygromycin B. Confluent cultures are passaged weekly. These cells are referred to as RGT cells for Rat Glutamate Transporter, and have been co-transfected with the glutamate/aspartate transporter GLAST. The RGT cell line expressing the mGlu2 receptors is stably transfected with the promiscuous G-protein, Galpha15 to change the signaling pathway to the mGlu2 receptor to one that could be easily measured through release of intracellular calcium. Thus, intracellular calcium levels are monitored before and after the addition of drugs on a Fluorometric Imaging Plate Reader (i.e. FLIPR, Molecular Devices). The following buffer is used throughout as an assay buffer: 10 mM KCl, 138 mM NaCl, 5 mM Ca Cl2, 1 mM MgCl2, 4 mM Na H2PO4, 10 mM Glucose, 10 mM HEPES, pH 7.4. Cells that had been plated 48 hours prior at a density of 30-40,000 cells per well in a 96-well plate are loaded with a calcium-sensitive dye for 90 minutes at 25° C. Fluo-3 (2 mM in DMSO, Molecular Probes) are mixed with a equal volume of 10% pluronic acid in DMSO, and diluted to 8 μM into the buffer described above containing 10% fetal bovine serum to make the loading buffer. Following loading of the cells, the loading buffer is removed and replaced with assay buffer prior to drug addition and monitoring on the FLIPR. The resulting signal from the addition of compounds of formula (I) and submaximal concentrations of a glutamate-site agonist (e.g. 1 μM glutamate) is determined by taking the difference of the maximal fluorescent peak height minus the background fluorescence in each well and expressing the results as a percent of the signal seen with a maximal glutamate response (30 μM glutamate, typically about 30-50,000 Relative Fluorescent Units). Least squares curve fitting with a four-parameter equation is then applied to the resulting dose-% response curve to determine the resulting EC50 values.

human CysLT1 receptor = molecular target: T2, human CysLT1 receptor (Homo sapiens, UniProt Q9Y271); assay: Antagonism of LTD4-induced increase in intracellular calcium within a CysLT1 receptor expressing cell line (FLIPR); assay type: cell-based; settings: 6 nM LTD4; read-out: antagonism of CysLT1 receptors, IC50
T2 construct: expressed in transfected cells; host or cells: AV12-664 (ATCC-9595)
T2 sequence (Q9Y271 1-337): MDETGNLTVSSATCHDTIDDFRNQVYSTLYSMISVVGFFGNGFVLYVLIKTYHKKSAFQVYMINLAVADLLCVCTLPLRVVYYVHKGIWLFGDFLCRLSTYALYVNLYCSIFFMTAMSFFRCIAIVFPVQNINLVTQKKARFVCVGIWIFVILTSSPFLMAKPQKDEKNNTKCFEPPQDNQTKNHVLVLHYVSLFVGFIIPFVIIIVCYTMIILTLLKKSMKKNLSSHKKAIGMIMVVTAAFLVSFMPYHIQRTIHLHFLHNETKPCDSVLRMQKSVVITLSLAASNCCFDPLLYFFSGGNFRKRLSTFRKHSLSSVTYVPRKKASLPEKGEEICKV
Experimental: Antagonism of Cysteinyl-leukotriene D4 (LTD4) -Induced Increase in Intracellular Calcium within a Cysteinyl-Leukotriene 1 (CysLT1) Receptor Expressing Cell Line
Cell lines expressing the human CysLT1 receptor [AV12-664 (ATCC-9595)] are derived and maintained in culture media: DMEM with 5% dialyzed fetal bovine serum, 1 mM glutamine, and 1 mM sodium pyruvate. Confluent cultures are passaged weekly. Intracellular calcium levels are monitored in the CysLT1-expressing cells with the addition of LTD4, with or without prior exposure to the compounds being tested as antagonists with a Fluorometric Imaging Plate Reader (FLIPR, Molecular Devices). The following buffer is used throughout as an assay buffer: Hanks Buffered Saline Solution without phenol red (GIBCO), with 10 mM HEPES pH 7.4. Cells that had been plated 48 hours prior at a density of 20-25,000 cells per well in a 96-well plate are loaded with a calcium-sensitive dye for 90 minutes at 25° C. Fluo-3 (2 mM in DMSO, Molecular Probes) is mixed with an equal volume of 10% pluronic acid in DMSO, and diluted to 8 μM in the buffer described above containing 10% fetal bovine serum to make the loading buffer. Following loading of the cells, the buffer is removed and replaced with assay buffer prior to drug addition and monitoring on the FLIPR for several minutes. The resulting signal from the addition of 6 nM LTD4 (provides approximately 90% of the maximal signal with 25 nM LTD4) is determined by taking the difference of the maximal fluorescent peak height minus the background fluorescence in each well and expressing the results as a percent of the signal seen without pretreatment of the test compound(s). Least squares curve fitting with a four-parameter equation is applied to the resulting dose-% inhibition curve to determine the resulting IC50 values.

Structure (SMILES)	pEC50 (human mGlu2 receptors)	pIC50 (human CysLT1 receptor)	melting point [°C]
CC(=O)c1ccc(OCc2ccc(Cc3cccc(C(=O)O)c3)cc2)c(Cl)c1O [Example 65, 3-[4-(4-Acetyl-2-chloro-3-hydroxy-phenoxymethyl)-benzyl]-benzoic acid]	> 7.00	> 6.12	
CCCc1c(OCc2ccc([C@H](O)c3cccc(C(=O)O)c3)cc2)ccc(C(C)=O)c1O [Example 155, 3-{[4-(4-acetyl-3-hydroxy-2-propyl-phenoxymethyl)-phenyl]-(S)-hydroxymethyl}-benzoic acid]			198.35

More lines, now with the values ahead:

pEC50 (human mGlu2 receptors)	pIC50 (human CysLT1 receptor)	melting point [°C]	Structure (SMILES)
> 7.00	> 6.12		CCCc1c(OCc2ccc(C(F)c3cccc(-c4nnn[nH]4)c3)cc2)ccc(C(C)=O)c1O (single isomer, unassigned; isomer 1) [Example 81, 1-[4-(4-{Fluoro-[3-(1H-tetrazol-5-yl)-phenyl]-methyl}-benzyloxy)-2-hydroxy-3-propyl-phenyl]-ethanone isomer 1]
> 7.00	> 6.12		CCCc1c(OCc2ccc(C(O)c3cccc(C(=O)O)c3)cc2)ccc(C(C)=O)c1O (single isomer, unassigned; isomer 1) [Example 83, (+)-3-{[4-(4-Acetyl-3-hydroxy-2-propyl-phenoxymethyl)-phenyl]-hydroxy-methyl}-benzoic acid isomer 1]
> 7.00	> 6.12		CCCc1c(OCc2ccc(C(O)c3ccc(OC)c(-c4nnn[nH]4)c3)cc2)ccc(C(C)=O)c1O (stereo not shown) [Example 47, 1-[2-hydroxy-4-(4-{hydroxy-[4-methoxy-3-(2H-tetrazol-5-yl)-phenyl]-methyl}-benzyloxy)-3-propyl-phenyl]-ethanone]
	> 6.12		CCCc1c(OCc2ccc(Cc3cccc(-c4nn[nH]n4)c3)cc2)ccc(C(C)=O)c1O [Example 60, 1-(2-hydroxy-3-propyl-4-{4-[3-(1H-tetrazol-5-yl)-benzyl]-benzyloxy}-phenyl)-ethanone]
